For data set [1], the system named is freely-moving rats. The experiment in a line: Blood pressure and heart rate measurement after morphine in freely-moving rats. As to conditions: for DBP, mmHg: Post-drug, % change from Pre (cumulative) / HR/MAP, mmHg/beats/min: Post-drug, % change from Pre (cumulative) / Heart rate (HR), beats/min: Post-drug, % change from Pre (cumulative) / MAP, mmHg: Post-drug, % change from Pre (cumulative) / SBP, MmHg: Post-drug % change from Pre (cumulative): 15-30 min post-morphine; for DBP, mmHg: Post-drug, % change from morphine (cumulative) / HR/MAP, mmHg/beats/min: Post-drug, % change from morphine (cumulative) / Heart rate (HR), beats/min: Post-drug % change from morphine (cumulative) / MAP, mmHg: Post-drug, % change from morphine (cumulative) / SBP, MmHg: Post-drug, % change from morphine (cumulative): final 15 min morphine value as pre-value.

Data set [2] concerns freely-moving rats. The experiment in a line: Arterial blood gases, pH and A-a gradient after morphine in freely-moving rats.
In data set [3] the test system is freely-moving rats. Put plainly: Tissue O2 saturation (SpO2) analysis after morphine in freely-moving rats. As to conditions: for Cumulative change in sPO2: Post-drug, % change from morphine: 15 min post-morphine value as pre-value.
In data set [4] the test system is isoflurane-anesthetized rats. As to conditions: rat, in vivo.
Another data set has as its system conscious rats. Also noted: species or system Sprague-Dawley rats. As to conditions: rat, in vivo.
Where [5] appears, read: Tempol 60 mg/kg IV 15 min after morphine 10 mg/kg IV.
Where [6] appears, read: Tempol 100 mg/kg IV 15 min after morphine 10 mg/kg IV.
The mark [7] stands for this setting: Tempol 60 mg/kg IV after morphine 10 mg/kg IV, FIG. 14.

Marks after values point to notes of the source that are not given here.

In the case of `CN1CC[C@]23c4c5ccc(O)c4O[C@H]2[C@@H](O)C=C[C@H]3[C@H]1C5` [Morphine, morphine], in the data set on freely-moving rats [1] (morphine 10 mg/kg IV, FIG. 18), the “MAP, change elicited by morphine” value was “relatively minor initial decreases” and the “heart rate, change elicited by morphine” value is on record as “substantial decreases”. In addition, in the data set with freely-moving rats [1] (morphine 10 mg/kg IV, FIG. 20), the “ratio of heart rate/MAP (index of baroreceptor heart rate reflex activity), change elicited by morphine” value was “somewhat minor reductions”. Moreover, in the data set on freely-moving rats [2] (morphine 10 mg/kg IV, FIG. 14), the “pCO2, change elicited by morphine” value was “equally pronounced increases”; the “pH, pO2 and sO2, change elicited by morphine” value is “pronounced decreases”. In addition, the “A-a gradient, change elicited by morphine” value with freely-moving rats [2] (morphine 10 mg/kg IV, FIG. 15) is reported as “rise”. In addition, the “SpO2, change elicited by morphine” value in the data set on freely-moving rats [3] (morphine 10 mg/kg IV, FIG. 17) is “pronounced and long-lasting decrease”.
Take `CC1(C)CC(O)CC(C)(C)N1[O]` [Tempol, 4-hydroxy-2,2,6,6-tetramethylpiperidine-N-oxyl]: in the data set on freely-moving rats [1] (setting [5]), the “DBP, mmHg: Post-drug, % change from Pre (cumulative)” value is −16.7 ± 1.7 %; the “HR/MAP, mmHg/beats/min: Post-drug, % change from Pre (cumulative)” value is recorded as “+19.2 ± 12.7 %”; the “Heart rate (HR), beats/min: Post-drug, % change from Pre (cumulative)” value is “+1.8 ± 7.1 %”; the “MAP, mmHg: Post-drug, % change from Pre (cumulative)” value is given as −13.7 ± 1.7 %. Further, in the data set with freely-moving rats [1] (setting [5]), the “SBP, MmHg: Post-drug % change from Pre (cumulative)” value is −9.5 ± 1.9 %; the “DBP, mmHg: Post-drug, % change from morphine (cumulative)” value is recorded as −13.9 ± 2.4*^,† %; the “HR/MAP, mmHg/beats/min: Post-drug, % change from morphine (cumulative)” value is “+53.3 ± 13.7*^,† %”; the “Heart rate (HR), beats/min: Post-drug % change from morphine (cumulative)” value is “+31.2 ± 10.3*^,† %”. In the data set with freely-moving rats [1] (setting [5]), the “MAP, mmHg: Post-drug, % change from morphine (cumulative)” value was −13.2 ± 1.8*^,† % and the “SBP, MmHg: Post-drug, % change from morphine (cumulative)” value was −11.3 ± 1.6*^,† %. Moreover, the “MAP, change elicited by Tempol after morphine” value in the data set with freely-moving rats [1] (Tempol 60 mg/kg IV 15 min after morphine 10 mg/kg IV, FIG. 18) is listed as “minor short-lived fall”. Further, in the data set with freely-moving rats [1] (setting [6]), the “DBP, mmHg: Post-drug, % change from Pre (cumulative)” value is given as −19.6 ± 2.0 %; the “HR/MAP, mmHg/beats/min: Post-drug, % change from Pre (cumulative)” value is listed as “+18.3 ± 3.9*7%”; the “Heart rate (HR), beats/min: Post-drug, % change from Pre (cumulative)” value was −6.8 ± 3.0*^,† %; the “MAP, mmHg: Post-drug, % change from Pre (cumulative)” value was −19.4 ± 1.5*^,† %. For the same compound, in the data set on freely-moving rats [1] (setting [6]), the “SBP, MmHg: Post-drug % change from Pre (cumulative)” value was −18.8 ± 1.2*^,† %; the “DBP, mmHg: Post-drug, % change from morphine (cumulative)” value is given as −3.2 ± 4.1 %; the “HR/MAP, mmHg/beats/min: Post-drug, % change from morphine (cumulative)” value is on record as “+43.0 ± 7.1*^,† %”; the “Heart rate (HR), beats/min: Post-drug % change from morphine (cumulative)” value is “+37.0 ± 9.9*^,† %”. In the data set on freely-moving rats [1] (setting [6]), the “MAP, mmHg: Post-drug, % change from morphine (cumulative)” value is listed as −5.6 ± 3.2 % and the “SBP, MmHg: Post-drug, % change from morphine (cumulative)” value is reported as −9.1 ± 2.3*^,† %. Further, the “MAP, change elicited by Tempol after morphine” value with freely-moving rats [1] (Tempol 100 mg/kg IV 15 min after morphine 10 mg/kg IV, FIG. 18) is “prompt and sustained decrease”. Moreover, the “morphine-induced bradycardia, effect of Tempol” value in the data set on freely-moving rats [1] (Tempol 60 and 100 mg/kg IV 15 min after morphine 10 mg/kg IV, FIG. 18) is “prompt and sustained reversal”. In addition, the “heart rate/MAP ratios, change elicited by Tempol after morphine” value with freely-moving rats [1] (Tempol 60 or 100 mg/kg IV, especially the 100 mg/kg dose, after morphine 10 mg/kg IV, FIG. 20) is “rapid and sustained increase”. In addition, in the data set on freely-moving rats [2] (setting [7]), the “effects of morphine on pH and sO2, effect of Tempol” value is “not reaching significance”; the “negative effects of morphine on pCO2 and pO2, effect of Tempol” value was “reversed the negative effects”. Besides, the “morphine-induced rise in A-a gradient, effect of Tempol” value in the data set on freely-moving rats [2] (Tempol 60 mg/kg IV after morphine 10 mg/kg IV, FIG. 15 top panel) is listed as “not affected”. Moreover, the “A-a gradient, effect of Tempol” value in the data set with freely-moving rats [2] (Tempol 100 mg/kg IV after morphine 10 mg/kg IV, 5 min post-administration, FIG. 15 bottom panel) was “pronounced decrease”. For the same compound, the “negative effects of morphine on pH, pCO2, pO2 and sO2, effect of Tempol” value in the data set on freely-moving rats [2] (Tempol 100 mg/kg IV after morphine 10 mg/kg IV, FIG. 16) was “sustained reversal”. Further, in the data set on freely-moving rats [3] (setting [5]), the “Cumulative change in sPO2: Post-drug, % change from morphine” value was “+5.0 ± 0.6*^,† %”. Besides, the “SpO2, effect of Tempol after morphine” value in the data set on freely-moving rats [3] (Tempol 60 mg/kg IV 15 min after morphine 10 mg/kg IV, FIG. 17) is given as “minor short-lived rise”. Further, the “Cumulative change in sPO2: Post-drug, % change from morphine” value in the data set with freely-moving rats [3] (setting [6]) was “+12.4 ± 2.0*^,† %”. The “negative effects of morphine on tissue oxygenation (SpO2), effect of Tempol” value with freely-moving rats [3] (Tempol 100 mg/kg IV 15 min after morphine 10 mg/kg IV, FIG. 17) was “prompt and sustained reversal”. Also, in data set [4], the “frequency of breathing (Freq), change elicited by Tempol” value is “minimal changes”; the “heart rate (HR), change elicited by Tempol” value was “somewhat minor but sustained decreases”; the “mean (MAP), diastolic (DBP) and systolic (SBP) arterial blood pressures, change elicited by Tempol” value is “pronounced dose-dependent decreases”; the “tidal volume (TV) and minute ventilation (MV), change elicited by Tempol” value is “somewhat dose-dependent (relatively minor but sustained) increases”. Also, in data set [4], the “total responses (all time points summed) in MAP, DBP, SBP and HR elicited by Tempol” value was “significant decreases”; the “total responses (all time points summed) in TV and MV elicited by Tempol” value is on record as “significant increases”. Besides, in the data set with conscious rats, the “tail-flick latencies, effect of Tempol alone” value is “no effects”.
